# According to ChEMBL document CHEMBL3885881, “DrugMatrix”:
# Species on record: Rattus norvegicus
# Assay type: toxicity, organism-based, Sprague-Dawley
# Conditions: in vivo, po, route oral GAVAGE, […]; for ABSOLUTE EOSINOPHIL / ABSOLUTE LYMPHOCYTE / ABSOLUTE MONOCYTE / ABSOLUTE SEGMENTED NEUTROPHIL / BASOPHIL / EOSINOPHIL / ERYTHROCYTE COUNT / HEMATOCRIT / HEMOGLOBIN / LEUKOCYTE COUNT / LYMPHOCYTE / MEAN CORPUSCULAR HEMOGLOBIN / MEAN CORPUSCULAR HEMOGLOBIN CONCENTRATION / MEAN CORPUSCULAR VOLUME / MONOCYTE / NEUTROPHIL / NUCLEATED RED BLOOD CELLS / PLATELET COUNT: tissue Blood; for ALANINE AMINOTRANSFERASE / ALBUMIN / ALKALINE PHOSPHATASE / ASPARTATE AMINOTRANSFERASE / BLOOD UREA NITROGEN / CARBON DIOXIDE / CHLORIDE / CHOLESTEROL / CREATINE PHOSPHOKINASE / CREATININE / GLUCOSE / LACTATE DEHYDROGENASE / LIPASE / PHOSPHORUS / POTASSIUM / SODIUM / TOTAL BILIRUBIN / TOTAL PROTEIN / URIC ACID: tissue Plasma
# [1] = 0 mg/kg, 6 h, vehicle control, dose level Control, time 0.25 day
# [2] = 0 mg/kg, 24 h, vehicle control, dose level Control, time 1 day
# [3] = 30 mg/kg, 6 h, dose level Low, time 0.25 day
# Description: DrugMatrix - Regimen: Single
structure (smiles),measurement,setting,value
S=C=Nc1cccc2ccccc12 [1-NAPHTHYLISOTHIOCYANATE],ABSOLUTE EOSINOPHIL,[1],61.17 CELLS/uL
same,ABSOLUTE LYMPHOCYTE,[1],12625.83 CELLS/uL
same,ABSOLUTE MONOCYTE,[1],417.17 CELLS/uL
same,ABSOLUTE SEGMENTED NEUTROPHIL,[1],1595.83 CELLS/uL
same,BASOPHIL,[1],0%
same,EOSINOPHIL,[1],0.33%
same,ERYTHROCYTE COUNT,[1],5.46 x10E6/uL
same,HEMATOCRIT,[1],36.02%
same,HEMOGLOBIN,[1],13.55 G/DL
same,LEUKOCYTE COUNT,[1],14.7 x10E3/uL
same,LYMPHOCYTE,[1],85.83%
same,MEAN CORPUSCULAR HEMOGLOBIN,[1],24.87 pg
same,MEAN CORPUSCULAR HEMOGLOBIN CONCENTRATION,[1],37.65 G/DL
same,MEAN CORPUSCULAR VOLUME,[1],66.03 fL
same,MONOCYTE,[1],2.67%
same,NEUTROPHIL,[1],11.17%
same,NUCLEATED RED BLOOD CELLS,[1],0 /100WBC
same,PLATELET COUNT,[1],1072.33 x10E3/uL
same,ALANINE AMINOTRANSFERASE,[1],63.33 u/L
same,ALBUMIN,[1],4.58 G/DL
same,ALKALINE PHOSPHATASE,[1],285 u/L
same,ASPARTATE AMINOTRANSFERASE,[1],116.5 u/L
same,BLOOD UREA NITROGEN,[1],9.17 mg/dL
same,CARBON DIOXIDE,[1],18.83 mmol/L
same,CHLORIDE,[1],104.5 MEQ/L
same,CHOLESTEROL,[1],68.67 mg/dL
same,CREATINE PHOSPHOKINASE,[1],421 u/L
same,CREATININE,[1],0.58 mg/dL
same,GLUCOSE,[1],160.67 mg/dL
same,LACTATE DEHYDROGENASE,[1],396 u/L
same,LIPASE,[1],10.33 u/L
same,PHOSPHORUS,[1],12.25 mg/dL
same,POTASSIUM,[1],6.42 MEQ/L
same,SODIUM,[1],142.77 MEQ/L
same,TOTAL BILIRUBIN,[1],0.25 mg/dL
same,TOTAL PROTEIN,[1],5.48 G/DL
same,URIC ACID,[1],1.65 mg/dL
same,ABSOLUTE EOSINOPHIL,[2],23.83 CELLS/uL
same,ABSOLUTE LYMPHOCYTE,[2],11026.5 CELLS/uL
same,ABSOLUTE MONOCYTE,[2],98.5 CELLS/uL
same,ABSOLUTE SEGMENTED NEUTROPHIL,[2],667.83 CELLS/uL
same,BASOPHIL,[2],0%
same,EOSINOPHIL,[2],0.17%
same,ERYTHROCYTE COUNT,[2],4.92 x10E6/uL
same,HEMATOCRIT,[2],31.9%
same,HEMOGLOBIN,[2],12.6 G/DL
same,LEUKOCYTE COUNT,[2],11.82 x10E3/uL
same,LYMPHOCYTE,[2],93%
same,MEAN CORPUSCULAR HEMOGLOBIN,[2],25.7 pg
same,MEAN CORPUSCULAR HEMOGLOBIN CONCENTRATION,[2],39.57 G/DL
same,MEAN CORPUSCULAR VOLUME,[2],64.97 fL
same,MONOCYTE,[2],0.83%
same,NEUTROPHIL,[2],6%
same,NUCLEATED RED BLOOD CELLS,[2],0 /100WBC
same,PLATELET COUNT,[2],872.33 x10E3/uL
same,ALANINE AMINOTRANSFERASE,[2],82.67 u/L
same,ALBUMIN,[2],4.17 G/DL
same,ALKALINE PHOSPHATASE,[2],321.83 u/L
same,ASPARTATE AMINOTRANSFERASE,[2],99.5 u/L
same,BLOOD UREA NITROGEN,[2],13.33 mg/dL
same,CARBON DIOXIDE,[2],33.67 mmol/L
same,CHLORIDE,[2],99.83 MEQ/L
same,CHOLESTEROL,[2],64 mg/dL
same,CREATINE PHOSPHOKINASE,[2],275.33 u/L
same,CREATININE,[2],0.21 mg/dL
same,GLUCOSE,[2],146.17 mg/dL
same,LACTATE DEHYDROGENASE,[2],101 u/L
same,LIPASE,[2],9.83 u/L
same,PHOSPHORUS,[2],8.82 mg/dL
same,POTASSIUM,[2],5.51 MEQ/L
same,SODIUM,[2],143.2 MEQ/L
same,TOTAL BILIRUBIN,[2],0.18 mg/dL
same,TOTAL PROTEIN,[2],5.83 G/DL
same,URIC ACID,[2],0.63 mg/dL
same,ABSOLUTE EOSINOPHIL,[3],14.83 CELLS/uL
same,ABSOLUTE LYMPHOCYTE,[3],9035 CELLS/uL
same,ABSOLUTE MONOCYTE,[3],384.17 CELLS/uL
same,ABSOLUTE SEGMENTED NEUTROPHIL,[3],1199.33 CELLS/uL
same,BASOPHIL,[3],0%
same,EOSINOPHIL,[3],0.17%
same,ERYTHROCYTE COUNT,[3],5.6 x10E6/uL
same,HEMATOCRIT,[3],38.25%
same,HEMOGLOBIN,[3],13.8 G/DL
same,LEUKOCYTE COUNT,[3],10.63 x10E3/uL
same,LYMPHOCYTE,[3],85.5%
same,MEAN CORPUSCULAR HEMOGLOBIN,[3],24.68 pg
same,MEAN CORPUSCULAR HEMOGLOBIN CONCENTRATION,[3],36.08 G/DL
same,MEAN CORPUSCULAR VOLUME,[3],68.37 fL
same,MONOCYTE,[3],3.67%
same,NEUTROPHIL,[3],10.67%
same,NUCLEATED RED BLOOD CELLS,[3],0 /100WBC
same,PLATELET COUNT,[3],1129.33 x10E3/uL
same,ALANINE AMINOTRANSFERASE,[3],63.33 u/L
same,ALBUMIN,[3],4.7 G/DL
same,ALKALINE PHOSPHATASE,[3],419.67 u/L
same,ASPARTATE AMINOTRANSFERASE,[3],128.33 u/L
same,BLOOD UREA NITROGEN,[3],10.5 mg/dL
same,CARBON DIOXIDE,[3],14.83 mmol/L
same,CHLORIDE,[3],104.17 MEQ/L
same,CHOLESTEROL,[3],78.67 mg/dL
same,CREATINE PHOSPHOKINASE,[3],651.17 u/L
same,CREATININE,[3],0.27 mg/dL
same,GLUCOSE,[3],216.83 mg/dL
same,LACTATE DEHYDROGENASE,[3],402.17 u/L
same,LIPASE,[3],11.67 u/L
same,PHOSPHORUS,[3],17.25 mg/dL
same,POTASSIUM,[3],7.07 MEQ/L
same,SODIUM,[3],146.68 MEQ/L
same,TOTAL BILIRUBIN,[3],0.23 mg/dL
same,TOTAL PROTEIN,[3],6.17 G/DL
same,URIC ACID,[3],3.28 mg/dL
